Like-named read-outs stand apart in the source and are kept apart here. Blank lines part the entries; values can stand above or below the molecule they belong to.
Key:
[1] = tested on: multiple myeloma-derived L363 cells; assay: Colorimetric MTS cell viability assay; type: cell-based; conditions: for Cell efficacy (GI50) Mean ± SD: N.S. = Not significant; for GI50: Homo sapiens, L-363, N.S. = Not significant, read-out: Cell efficacy (GI50) Mean ± SD
From the text: • *Data from Park, J. E., et al {Park, 2023 #3387}. **Data from Alverez C. N., et al {Alverez, 2020 #3186}. N. S., Not significant; N. D., Not determined. ^a IC50 values determined from at least three independent experiments except as noted in parentheses. b A colorimetric MTS cell viability assay carried out using multiple myeloma-derived L363 cells.

[2] = tested on: Plk3 PBD; assay: FP-based inhibition assay; type: binding; conditions: N.S. = Not significant
Description: (§1) In the following, PBD1-3 fluorescence polarization (FP) binding assays were carried out for determining the Plk1 specificity. FP assays were carried out essentially as described previously {Liu, 2011 #2790; Qian, 2014 #1416}. All samples were analyzed approximately 30 min after reaction in a 384-well format using the SpectraMax Paradigm multi-mode microplate detection platform (Molecular Devices). Data were analyzed after carrying out at least three independent experiments using GraphPad Prism software version 7.

[3] = tested on: Plk2 PBD; assay: FP-based inhibition assay; type: binding; conditions: N.S. = Not significant
Description: as §1

[4] = biological target: PBD1 (Homo sapiens, UniProt P53350); assay: FP-based inhibition assay; type: binding; conditions: read-out: PBD1 IC50 ± SD
Description: as §1, with “FP assays were carried out essentially as described previously {Liu, 2011 #2790; Qian, 2014 #1416}.” left out

[5] = tested on: multiple myeloma-derived L363 cells; conditions: MTS, *Data from Park, J. E., cited from earlier work
[6] = biological target: T1, full-length Plk1 / biotinylated PBIP1 phospho-T78 peptide interaction (Homo sapiens, UniProt P53350); conditions: *Data from Park, J. E., et al 2023; read-out: ELISA (IC50) Mean ± SEM; cited from earlier work
T1 construct: HA; EGFP; expressed in transfected cells; host or cells: HEK293A cells infected with adenovirus; total lysates

[7] = *Data from Park, J. E., et al 2023; cited from earlier work
[8] = biological target: T1, full-length Plk1 / biotinylated PBIP1 phospho-T78 peptide interaction; assay: ELISA-based PBD1-binding inhibition assay; conditions: at least three independent experiments; read-out: ELISA (IC50) Mean ± SEM
[9] = Solubility remark in Table 1; type: physicochemical

T1 sequence (P53350 whole entry): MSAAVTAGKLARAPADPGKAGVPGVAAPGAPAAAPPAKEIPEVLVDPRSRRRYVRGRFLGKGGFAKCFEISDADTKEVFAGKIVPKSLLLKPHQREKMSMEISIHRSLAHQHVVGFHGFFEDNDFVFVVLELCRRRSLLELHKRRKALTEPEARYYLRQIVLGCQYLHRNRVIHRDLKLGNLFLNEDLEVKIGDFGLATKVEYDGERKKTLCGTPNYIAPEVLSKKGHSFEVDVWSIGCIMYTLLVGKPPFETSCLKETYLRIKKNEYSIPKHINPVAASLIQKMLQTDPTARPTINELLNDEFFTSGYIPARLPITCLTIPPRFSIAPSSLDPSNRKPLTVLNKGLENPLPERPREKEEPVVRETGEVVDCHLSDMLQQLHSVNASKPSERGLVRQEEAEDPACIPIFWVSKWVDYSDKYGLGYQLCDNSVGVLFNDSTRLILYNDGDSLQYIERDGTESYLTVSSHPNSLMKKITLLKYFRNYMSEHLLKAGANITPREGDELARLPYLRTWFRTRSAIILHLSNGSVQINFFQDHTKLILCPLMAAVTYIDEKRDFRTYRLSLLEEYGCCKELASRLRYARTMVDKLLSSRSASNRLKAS
PBD1, sequence (P53350 371-594 limits assumed): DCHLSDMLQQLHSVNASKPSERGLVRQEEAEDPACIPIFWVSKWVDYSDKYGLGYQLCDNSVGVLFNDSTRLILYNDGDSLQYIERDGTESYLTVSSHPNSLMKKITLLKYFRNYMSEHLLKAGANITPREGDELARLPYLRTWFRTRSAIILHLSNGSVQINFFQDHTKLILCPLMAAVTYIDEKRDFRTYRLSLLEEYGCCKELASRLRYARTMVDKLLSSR

GI50 [1]: 8.31 ± 0.56 µM
IC50 [8]: > 50 µM
Compound: CCCn1c(=O)c2oc3ccccc3c2n2c(Sc3c([N+](=O)[O-])ncn3C)nnc12 [Compound 8, 1-((1-Methyl-4-nitro-1H-imidazol-5-yl)thio)-4-propylbenzofuro[2,3-e][1,2,4]triazolo[4,3-a]pyrimidin-5(4H)-one]

GI50 [1]: 7.53 ± 0.43 µM
IC50 [8]: > 50 µM
Compound: CCCn1c(=O)c2oc3cccc(F)c3c2n2c(Sc3c([N+](=O)[O-])ncn3C)nnc12 [Compound 10, 10-Fluoro-1-((1-methyl-4-nitro-1H-imidazol-5-yl)thio)-4-propylbenzofuro[2,3-e][1,2,4]triazolo[4,3-a]pyrimidin-5 (4H)-one]

GI50 [1]: 8.4 ± 0.74 µM
solubility [9]: moderate solubility
IC50 [8]: > 50 µM
Compound: CCCn1c(=O)c2sccc2n2c(Sc3c([N+](=O)[O-])ncn3C)nnc12 [Compound 12, 1-((1-Methyl-4-nitro-1H-imidazol-5-yl)thio)-4-propylthieno[2,3-e][1,2,4]triazolo[4,3-a]pyrimidin-5 (4H)-one]

GI50 [1]: 6.04 ± 0.17 µM
IC50 [8]: > 50 µM
Compound: CCCn1c(=O)c2sc(Cl)cc2n2c(Sc3c([N+](=O)[O-])ncn3C)nnc12 [Compound 14, 7-Chloro-1-((1-methyl-4-nitro-1H-imidazol-5-yl)thio)-4-propylthieno[2,3-e][1,2,4]triazolo[4,3-a]pyrimidin-5 (4H)-one]

GI50 [1]: 4.19 ± 0.15 µM
solubility [9]: moderate solubility
IC50 [8]: > 50 µM
Compound: CCCn1c(=O)c2sc(C(C)(C)C)cc2n2c(Sc3c([N+](=O)[O-])ncn3C)nnc12 [Compound 16, 7-(tert-Butyl)-1-((1-methyl-4-nitro-1H-imidazol-5-yl)thio)-4-propylthieno[2,3-e][1,2,4]triazolo[4,3-a]pyrimidin-5 (4H)-one]

GI50 [1]: 7.05 ± 0.27 µM
IC50 [8]: > 50 µM
Compound: CCCn1c(=O)c2sc3ccccc3c2n2c(Sc3c([N+](=O)[O-])ncn3C)nnc12 [Compound 18, 1-((1-Methyl-4-nitro-1H-imidazol-5-yl)thio)-4-propylbenzo[4,5]thieno[2,3-e][1,2,4]triazolo[4,3-a]pyrimidin-5 (4H)-one]

IC50 [8]: 9.32 ± 0.17 µM
Compound: O=C(CCCCC1SCC2NC(=O)NC21)NCCOCCOCCOCCOCCC(=O)NCCCn1c(=O)c2cc(F)ccc2n2c(=S)[nH]nc12 (centres unmarked) [Compound 22, N-(3-(7-Fluoro-5-oxo-1-thioxo-1,2-dihydro-[1,2,4]triazolo[4,3-a]quinazolin-4 (5H)-yl)propyl)-1-(5-(2-oxohexahydro-1H-thieno[3,4-d]imidazol-4-yl)pentanamido)-3,6,9,12-tetraoxapentadecan-15-amide]

The next lines start with the molecule.

Compound: CC(=O)N1CCC[C@H]1C(=O)N[C@@H](CC(C)C)C(=O)N[C@@H](Cc1cnc[nH]1)C(=O)N[C@@H](CO)C(=O)N[C@H](C(=O)O)[C@@H](C)O [Compound 1, PLHST, reference compound]
Cell efficacy (GI50) Mean ± SD [1]: N.S.

Compound: CC(=O)N1CCC[C@H]1C(=O)N[C@@H](CC(C)C)C(=O)N[C@@H](Cc1cnc[nH]1)C(=O)N[C@@H](CO)C(=O)N[C@H](C(=O)O)[C@@H](C)OP(=O)(O)O [Compound 2, PLHSpT, reference compound]
Cell efficacy (GI50) Mean ± SD [1]: N.S.
Plk3 PBD IC50 ± SD [2]: N.S.
Plk2 PBD IC50 ± SD [3]: N.S.

Compound: CCCn1c(=O)c2sc(C)cc2n2c(=S)[nH]nc12 [Compound 3]
IC50 [4]: 0.0102 ± 0.0015 µM
Cell efficacy (GI50) Mean ± SD ([5]; et al 2023): N.S.
Plk3 PBD IC50 ± SD [2]: N.S.
Plk2 PBD IC50 ± SD [3]: N.S.
IC50 [6]: 2.15 ± 0.13 µM

Compound: CCCn1c(=O)c2sc(C)cc2n2c(Sc3c([N+](=O)[O-])ncn3C)nnc12 [Compound 4]
GI50 ([5]; et al 2023, read-out: Cell efficacy (GI50) Mean ± SD): 4.88 ± 0.1 µM
solubility [7]: low solubility
IC50 [6]: > 50 µM

Compound: Cc1cc2c(s1)c(=O)n(CC1CC1)c1n[nH]c(=S)n21 [Compound 5, 4-(Cyclopropylmethyl)-7-methyl-1-thioxo-2,4-dihydrothieno[2,3-e][1,2,4]triazolo[4,3-a]pyrimidin-5 (1H)-one]
IC50 [4]: 0.0128 ± 0.0026 µM
Cell efficacy (GI50) Mean ± SD [1]: N.S.
Plk3 PBD IC50 ± SD [2]: N.S.
Plk2 PBD IC50 ± SD [3]: N.S.
IC50 [8]: 1.66 ± 0.04 µM

Compound: Cc1cc2c(s1)c(=O)n(CC1CC1)c1nnc(Sc3c([N+](=O)[O-])ncn3C)n21 [Compound 6, 4-(Cyclopropylmethyl)-7-methyl-1-((1-methyl-4-nitro-1H-imidazol-5-yl)thio) thieno[2,3-e][1,2,4]triazolo[4,3-a]pyrimidin-5 (4H)-one]
GI50 [1]: 3.13 ± 0.15 µM
solubility [9]: low solubility
IC50 [8]: > 50 µM

Source: patent US20260272934A1 (The United States of America, as represented by the …, priority 2023, published 2026)
